# Assay results from patent US20220133717A1, “RABEXIMOD IN THE TREATMENT OF RHEUMATOID ARTHRITIS” (CYXONE AB, priority 2020, published 2022).
# Like-named read-outs stand apart in the source and are kept apart here.
# Experiments:
# [1] = system: patients with moderate or severe active rheumatoid arthritis; test: Phase II clinical trial: safety (AEs, physical examinations, vital signs, ECG)
# Excerpt: The Phase II study was a randomised, parallel-group, double-blind, dose-ranging, placebo-controlled study of Rabeximod in patients with moderate or severe active RA with an inadequate response to methotrexate.
# Safety assessments included AEs, vital signs, weight, physical examination, 12-lead ECG and safety laboratory tests (serum chemistry, haematology and urinalysis).
# Safety measurements for this study included AEs, clinical laboratory tests, physical examinations, vital signs and resting 12-lead ECGs.
# healthy male volunteers = test: Phase 1 clinical trial: safety and tolerability of single and multiple oral rising doses; type: in vivo, human
# Excerpt: The Phase 1 study assessed the safety, tolerability, pharmacokinetics and pharmacodynamics of single and multiple oral rising doses of Rabeximod (in a capsule formulation) in healthy male volunteers. The study also included an open-label, randomised, two-period crossover part that was designed to investigate the effect of food on the pharmacokinetics of Rabeximod. In total, 87 healthy male subjects were enrolled into the study.
# [2] = Phase II clinical trial: pharmacokinetics of plasma Rabeximod (PK subgroup); type: in vivo, human; conditions: for half-life / Tmax / AUC(0-t) / AUC / Cmax: human, plasma, oral
# Excerpt: A total of 9 visits occurred over the course of the study (screening, randomisation [Day 0, baseline]. Day 1, and Weeks 2, 4, 6, 8, 12 and 16). The Day 1 visit was included for a subgroup of 36 patients (PK/PD subgroup) who were selected at specified study centres to also participate in the PK/PD aspect of the study. Individual patient duration in the study was approximately 126 days (a 14 day screening period, an 84 day treatment period [12 weeks], and a 28 day [4 week] follow-up period).
# In addition to standard efficacy and safety assessments, it was planned that 40 patients in selected study centres would have blood draws at the beginning of the study (Day 1) and at the end of the study (Week 12) to assess the PK of Rabeximod. The actual number of patients who participated in the PK aspect of the study was 36. The ACR20, ACR50 and ACR70 are assessments of RA improvement. The mHAQ is a validated instrument used to assess patient satisfaction in activity of daily living. It was planned to use the Original DAS as the outcome measure, but this was replaced with DAS28 because it is used more frequently in therapeutic studies have been used in many RA studies.
# […] The study drug was to be taken at approximately the same time every morning, starting from Day 1. For the PK/PD subgroup, on the day when the PK/PD sampling was scheduled, study drug was to be taken after the first blood sampling. The study design of the treatment phase was double-blind. All study drug, including placebo, were identical in size, shape, colour and taste, thus allowing double-blind conditions to be maintained. All study personnel and patients remained blinded to the drug treatment assignments. Patients self-administered all doses of study drug end were instructed to return all residual, unused and empty packaging to the clinic at scheduled visits. If dosing compliance was not maintained at between 80% and 120% then the patient was to be withdrawn from the study. Patients in the PK/PD subgroup were to take study drug at the clinic on Day 1 and at Week 12. Compliance was monitored through drug accountability. The Investigator, or designee, maintained an inventory record of study drug received, dispensed, administered and returned to assure the Sponsor that study drug was not dispensed to any person who was not a patient under the terms and conditions set forth in the protocol. Clinically significant protocol deviations were identified based on criteria determined by the project leader to be clinically relevant. Deviations were reported on the CRFs. Additionally, upon completion of the study, certain deviations (e.g., visit window deviations) were identified through the use of SAS® programming.
# The PK assessment of Rabeximod was performed in a subgroup of 36 patients during the study.
# Concentration-time profiles for plasma Rabeximod following single (Day 1) and repeated administration (Week 12) of Rabeximod were determined.
smiles,measurement,setting,value
"Cc1cc2nc3c4cc(Cl)ccc4n(CC(=O)NCCN(C)C)c3nc2cc1C [Rabeximod, 9-Chloro-2,3-dimethyl-6-(N,N-dimethylaminoethylamino-2-oxoethyl)-6H-indolo-[2,3-b]quinoxaline]",proportion of patients experiencing study drug-related AEs,[1]; 37.5 mg group (32 patients),58.2%
same,deaths during the study,"[1]; 12 weeks treatment, 4 weeks follow-up",No deaths
same,proportion of patients experiencing study drug-related AEs,[1]; Rabeximod groups pooled (placebo 11.1%),34.5%
same,majority of changes in physical examinations,"[1]; all occurred in the Rabeximod group, most reported as AEs",skin abnormalities
same,relation of skin abnormality events to dose,"[1]; majority in 37.5 mg group, then 15 mg, then 6.25 mg",dose response
same,tolerability,"[1]; once daily at 6.25, 15 and 37.5 mg, RA patients taking methotrexate",well-tolerated
same,changes in vital signs and 12-lead ECGs,[1]; over the course of the study,no notable changes
same,tolerability,healthy male volunteers; multiple dose of 600 mg loading followed by 100 mg,less well tolerated due to phototoxicity reactions
same,tolerability,healthy male volunteers; multiple oral doses up to a 200 mg loading dose followed by 50 mg maintenance dose,well tolerated
same,tolerability,healthy male volunteers; single dose of 600 mg,less well tolerated due to phototoxicity reactions
same,tolerability,healthy male volunteers; single oral doses up to 400 mg,well tolerated
same,impact of methotrexate on the kinetics of Rabeximod,[2]; co-administered stable dose of methotrexate,does not appear to have an impact
same,"increase of geometric mean AUC0-τ, AUC0-t and Cmax with dose","[2]; dose range 6.25 to 37.5 mg, with stable dose of methotrexate",approximately dose-proportional
same,half-life,"[2]; 6.25 mg, Week 12, 6.25 mg, read-out: geometric mean apparent terminal half-life (t1/2) (converted)",81.5 h
same,half-life,"[2]; 15 mg, Week 12, 15 mg, read-out: geometric mean apparent terminal half-life (t1/2) (converted)",77.1 h
same,half-life,"[2]; 37.5 mg, Week 12, 37.5 mg, read-out: geometric mean apparent terminal half-life (t1/2) (converted)",111 h
same,Tmax,"[2]; 37.5 mg, single administration at 6.25, 15 and 37.5 mg, across all dose levels, with methotrexate, read-out: Tmax (median estimates)",5 to 8 h
same,Tmax,"[2]; repeated administration, Week 12, read-out: Tmax (median estimates)",2 to 4 h
same,AUC(0-t),"[2]; po, 6.25 mg, Week 12, 6.25 mg once daily, RA patients, with methotrexate, read-out: AUC0-t, Median",2810 ng·h/mL
same,half-life,"[2]; po, 6.25 mg, Week 12, 6.25 mg once daily, RA patients, with methotrexate, read-out: T1/2 (apparent terminal half-life), Geometric mean (converted)",81.5 h
same,half-life,"[2]; po, 6.25 mg, Week 12, 6.25 mg once daily, RA patients, with methotrexate, read-out: T1/2 (apparent terminal half-life), Median (converted)",86.6 h
same,AUC,"[2]; po, 6.35 mg, Day 1 (equivalent to AUC0-t), 6.35 mg, RA patients, with methotrexate, read-out: AUC0-τ, Geometric mean",112 ng·h/mL
same,AUC,"[2]; po, 6.35 mg, Day 1 (equivalent to AUC0-t), 6.35 mg, RA patients, with methotrexate, read-out: AUC0-τ, Median",107 ng·h/mL
same,Cmax,"[2]; po, 6.35 mg, Day 1, 6.35 mg, RA patients, with methotrexate, read-out: Cmax, Geometric mean",7.92 ng/mL
same,Cmax,"[2]; po, 6.35 mg, Day 1, 6.35 mg, RA patients, with methotrexate, read-out: Cmax, Median",7.05 ng/mL
same,Tmax,"[2]; po, 6.35 mg, Day 1, 6.35 mg, RA patients, with methotrexate, read-out: Tmax, Median",8.03 h
same,AUC(0-t),"[2]; po, 6.35 mg, Week 12, 6.35 mg once daily, RA patients, with methotrexate, read-out: AUC0-t, Geometric mean",2530 ng·h/mL
same,AUC,"[2]; po, 6.35 mg, Week 12, 6.35 mg once daily, RA patients, with methotrexate, read-out: AUC0-τ, Geometric mean",587 ng·h/mL
same,AUC,"[2]; po, 6.35 mg, Week 12, 6.35 mg once daily, RA patients, with methotrexate, read-out: AUC0-τ, Median",710 ng·h/mL
same,Cmax,"[2]; po, 6.35 mg, Week 12, 6.35 mg once daily, RA patients, with methotrexate, read-out: Cmax, Geometric mean",31 ng/mL
same,Cmax,"[2]; po, 6.35 mg, Week 12, 6.35 mg once daily, RA patients, with methotrexate, read-out: Cmax, Median",37.5 ng/mL
same,Tmax,"[2]; po, 6.35 mg, Week 12, 6.35 mg once daily, RA patients, with methotrexate, read-out: Tmax, Median",2.17 h
same,AUC,"[2]; po, 15 mg, Day 1 (equivalent to AUC0-t), 15 mg, RA patients, with methotrexate, read-out: AUC0-τ, Geometric mean",282 ng·h/mL
same,AUC,"[2]; po, 15 mg, Day 1 (equivalent to AUC0-t), 15 mg, RA patients, with methotrexate, read-out: AUC0-τ, Median",254 ng·h/mL
same,Cmax,"[2]; po, 15 mg, Day 1, 15 mg, RA patients, with methotrexate, read-out: Cmax, Geometric mean",18.3 ng/mL
same,Cmax,"[2]; po, 15 mg, Day 1, 15 mg, RA patients, with methotrexate, read-out: Cmax, Median",16 ng/mL
same,Tmax,"[2]; po, 15 mg, Day 1, 15 mg, RA patients, with methotrexate, read-out: Tmax, Median",6.04 h
same,AUC(0-t),"[2]; po, 15 mg, Week 12, 15 mg once daily, RA patients, with methotrexate, read-out: AUC0-t, Geometric mean",4970 ng·h/mL
same,AUC(0-t),"[2]; po, 15 mg, Week 12, 15 mg once daily, RA patients, with methotrexate, read-out: AUC0-t, Median",5590 ng·h/mL
same,AUC,"[2]; po, 15 mg, Week 12, 15 mg once daily, RA patients, with methotrexate, read-out: AUC0-τ, Geometric mean",1530 ng·h/mL
same,AUC,"[2]; po, 15 mg, Week 12, 15 mg once daily, RA patients, with methotrexate, read-out: AUC0-τ, Median",1480 ng·h/mL
same,Cmax,"[2]; po, 15 mg, Week 12, 15 mg once daily, RA patients, with methotrexate, read-out: Cmax, Geometric mean",79.7 ng/mL
same,Cmax,"[2]; po, 15 mg, Week 12, 15 mg once daily, RA patients, with methotrexate, read-out: Cmax, Median",91.6 ng/mL
same,half-life,"[2]; po, 15 mg, Week 12, 15 mg once daily, RA patients, with methotrexate, read-out: T1/2 (apparent terminal half-life), Geometric mean (converted)",77.1 h
same,half-life,"[2]; po, 15 mg, Week 12, 15 mg once daily, RA patients, with methotrexate, read-out: T1/2 (apparent terminal half-life), Median (converted)",77.6 h
same,Tmax,"[2]; po, 15 mg, Week 12, 15 mg once daily, RA patients, with methotrexate, read-out: Tmax, Median",4 h
same,AUC,"[2]; po, 37.5 mg, Day 1 (equivalent to AUC0-t), 37.5 mg, RA patients, with methotrexate, read-out: AUC0-τ, Geometric mean",689 ng·h/mL
same,AUC,"[2]; po, 37.5 mg, Day 1 (equivalent to AUC0-t), 37.5 mg, RA patients, with methotrexate, read-out: AUC0-τ, Median",697 ng·h/mL
same,Cmax,"[2]; po, 37.5 mg, Day 1, 37.5 mg, RA patients, with methotrexate, read-out: Cmax, Geometric mean",41.7 ng/mL
same,Cmax,"[2]; po, 37.5 mg, Day 1, 37.5 mg, RA patients, with methotrexate, read-out: Cmax, Median",41.8 ng/mL
same,Tmax,"[2]; po, 37.5 mg, Day 1, 37.5 mg, RA patients, with methotrexate, read-out: Tmax, Median",5.03 h
same,AUC(0-t),"[2]; po, 37.5 mg, Week 12, 37.5 mg once daily, RA patients, with methotrexate, read-out: AUC0-t, Geometric mean",15900 ng·h/mL
same,AUC(0-t),"[2]; po, 37.5 mg, Week 12, 37.5 mg once daily, RA patients, with methotrexate, read-out: AUC0-t, Median",17500 ng·h/mL
same,AUC,"[2]; po, 37.5 mg, Week 12, 37.5 mg once daily, RA patients, with methotrexate, read-out: AUC0-τ, Geometric mean",4040 ng·h/mL
same,AUC,"[2]; po, 37.5 mg, Week 12, 37.5 mg once daily, RA patients, with methotrexate, read-out: AUC0-τ, Median",4540 ng·h/mL
same,Cmax,"[2]; po, 37.5 mg, Week 12, 37.5 mg once daily, RA patients, with methotrexate, read-out: Cmax, Geometric mean",218 ng/mL
same,Cmax,"[2]; po, 37.5 mg, Week 12, 37.5 mg once daily, RA patients, with methotrexate, read-out: Cmax, Median",238 ng/mL
same,half-life,"[2]; po, 37.5 mg, Week 12, 37.5 mg once daily, RA patients, with methotrexate, read-out: T1/2 (apparent terminal half-life), Geometric mean (converted)",111 h
same,half-life,"[2]; po, 37.5 mg, Week 12, 37.5 mg once daily, RA patients, with methotrexate, read-out: T1/2 (apparent terminal half-life), Median (converted)",107 h
same,Tmax,"[2]; po, 37.5 mg, Week 12, 37.5 mg once daily, RA patients, with methotrexate, read-out: Tmax, Median",3.99 h
